Values after ≈ are worked out from the molar mass of the structure shown. Residues, ends and D or L forms follow the SMILES beside them.
Tests used:
Staphylococcus aureus [1] = assay: Antibacterial activity against methicillin-sensitive Staphylococcus aureus ATCC 49775 incubated for 16 to 20 hrs by CLSI based broth microdilution method; assay type: functional; details: time 16-20 hrs
Staphylococcus aureus [2] = assay: Antibacterial activity against methicillin-sensitive Staphylococcus aureus ATCC 29213 incubated for 16 to 20 hrs by CLSI based broth microdilution method; assay type: functional; details: time 16-20 hrs
Staphylococcus aureus [3] = assay: Antibacterial activity against methicillin-resistant Staphylococcus aureus ATCC USA300 incubated for 16 to 20 hrs by CLSI based broth microdilution method; assay type: functional; details: time 16-20 hrs
Staphylococcus aureus [4] = assay: Antibacterial activity against methicillin-resistant Staphylococcus aureus […] incubated for 16 to 20 hrs by CLSI based broth microdilution method; assay type: functional; details: time 16-20 hrs
[5] = Hemolytic activity in sheep erythrocytes incubated for 30 mins by absorbance based assay; assay type: toxicity, cell-based, Ovis aries, Erythrocyte
[6] = Retention time of the compound by RP-HPLC analysis; assay type: physicochemical
HEK293 = assay: Nephrotoxicity against HEK293 cells at MIC incubated for 24 hrs by MTT assay; assay type: toxicity, cell-based; details: human, hek293, 24 h
[7] = Nephrotoxicity against HEK293 cells assessed as cell viability at 12.5 uM incubated for 24 hrs by MTT assay relative to control; assay type: toxicity, cell-based; details: human, read-out: Activity

SMILES	MIC (Staphylococcus aureus [1]) [mg/L]	MIC (Staphylococcus aureus [2]) [mg/L]	MIC (Staphylococcus aureus [3]) [mg/L]	MIC (Staphylococcus aureus [4]) [mg/L]	HC50 at 0.5 h [5] [µM]	Retention_time [6] [min]	Activity (HEK293)	viability at 24 h, 12.5 µM [7] [%]
CC(C)C[C@@H]1NC(=O)[C@H](CCCNC(=N)N)NC(=O)[C@H](C(C)C)NC(=O)[C@@H]2CCCN2C(=O)[C@@H](Cc2ccccc2)NC(=O)[C@H](CC(C)C)NC(=O)[C@H](CCCNC(=N)N)NC(=O)[C@H](C(C)C)NC(=O)[C@@H]2CCCN2C(=O)[C@@H](Cc2ccccc2)NC1=O	8 (≈ 6.53 µM)	8 (≈ 6.53 µM)	8 (≈ 6.53 µM)	8 (≈ 6.53 µM)	25.4	18.62		
CC(C)C[C@@H]1NC(=O)[C@H](CCCN)NC(=O)[C@H](C(C)C)NC(=O)[C@@H]2CCCN2C(=O)[C@@H](Cc2c[nH]cn2)NC(=O)[C@H](CC(C)C)NC(=O)[C@H](CCCN)NC(=O)[C@H](C(C)C)NC(=O)[C@@H]2CCCN2C(=O)[C@@H](Cc2c[nH]cn2)NC1=O	256 (≈ 228 µM)	256 (≈ 228 µM)	> 256	256 (≈ 228 µM)	> 100	14.01		
CC(C)C[C@@H]1NC(=O)[C@H](CCCN)NC(=O)[C@H](C(C)C)NC(=O)[C@@H]2CCCN2C(=O)[C@@H](CCCNC(=N)N)NC(=O)[C@H](CC(C)C)NC(=O)[C@H](CCCN)NC(=O)[C@H](C(C)C)NC(=O)[C@@H]2CCCN2C(=O)[C@@H](CCCNC(=N)N)NC1=O	32 (≈ 27.6 µM)	16 (≈ 13.8 µM)	32 (≈ 27.6 µM)	16 (≈ 13.8 µM)	> 100	14.56		
CC(C)C[C@@H]1NC(=O)[C@H](CCCN)NC(=O)[C@H](C(C)C)NC(=O)[C@@H]2CCCN2C(=O)[C@@H](Cc2ccccc2)NC(=O)[C@H](CC(C)C)NC(=O)[C@H](CCCN)NC(=O)[C@H](C(C)C)NC(=O)[C@@H]2CCCN2C(=O)[C@@H](CCCNC(=N)N)NC1=O (HELM PEPTIDE1{L.[dF].P.V.[Orn].L.[dR].P.V.[Orn]}$PEPTIDE1,PEPTIDE1,1:R1-10:R2$$$V2.0)	8 (≈ 6.95 µM)	8 (≈ 6.95 µM)	8 (≈ 6.95 µM)	8 (≈ 6.95 µM)	> 100	16.22	Non-Toxic	~90
CC(C)C[C@@H]1NC(=O)[C@H](CCCN)NC(=O)[C@H](C(C)C)NC(=O)[C@H](Cc2c[nH]cn2)NC(=O)[C@@H](Cc2ccccc2)NC(=O)[C@H](CC(C)C)NC(=O)[C@H](CCCN)NC(=O)[C@H](C(C)C)NC(=O)[C@H](Cc2c[nH]cn2)NC(=O)[C@@H](Cc2ccccc2)NC1=O	64 (≈ 52.4 µM)	64 (≈ 52.4 µM)	128 (≈ 105 µM)	64 (≈ 52.4 µM)	> 100	14.74		
CC(C)C[C@@H]1NC(=O)[C@H](CCCN)NC(=O)[C@H](C(C)C)NC(=O)[C@@H]2CCCN2C(=O)[C@@H](Cc2ccccc2)NC(=O)[C@H](CC(C)C)NC(=O)[C@H](CCCNC(=N)N)NC(=O)[C@H](C(C)C)NC(=O)[C@@H]2CCCN2C(=O)[C@@H](CCCNC(=N)N)NC1=O (HELM PEPTIDE1{L.[dF].P.V.[Orn].L.[dR].P.V.R}$PEPTIDE1,PEPTIDE1,1:R1-10:R2$$$V2.0)	8 (≈ 6.71 µM)	8 (≈ 6.71 µM)	8 (≈ 6.71 µM)	8 (≈ 6.71 µM)	87.2	16.47		
CC(C)C[C@@H]1NC(=O)[C@H](CCCN)NC(=O)[C@H](C(C)C)NC(=O)[C@@H]2CCCN2C(=O)[C@@H](Cc2ccccc2)NC(=O)[C@H](CC(C)C)NC(=O)[C@H](CCCN)NC(=O)[C@H](C(C)C)NC(=O)[C@@H]2CCCN2C(=O)[C@@H](Cc2ccccc2)NC1=O [GRAMICIDIN S] (HELM PEPTIDE1{L.[dF].P.V.[Orn].L.[dF].P.V.[Orn]}$PEPTIDE1,PEPTIDE1,1:R1-10:R2$$$V2.0)	4 (≈ 3.5 µM)	4 (≈ 3.5 µM)	4 (≈ 3.5 µM)	4 (≈ 3.5 µM)	60.1	18.57		25
CC(C)C[C@@H]1NC(=O)[C@H](CCCN)NC(=O)[C@H](C(C)C)NC(=O)[C@@H]2CCCN2C(=O)[C@@H](Cc2ccccc2)NC(=O)[C@H](CC(C)C)NC(=O)[C@H](CCCNC(=N)N)NC(=O)[C@H](C(C)C)NC(=O)[C@@H]2CCCN2C(=O)[C@@H](Cc2ccccc2)NC1=O	4 (≈ 3.38 µM)	8 (≈ 6.76 µM)	8 (≈ 6.76 µM)	16 (≈ 13.5 µM)	46.2	18.74		
CC(C)C[C@@H]1NC(=O)[C@H](CCCNC(=N)N)NC(=O)[C@H](C(C)C)NC(=O)[C@@H]2CCCN2C(=O)[C@@H](Cc2c[nH]cn2)NC(=O)[C@H](CC(C)C)NC(=O)[C@H](CCCN)NC(=O)[C@H](C(C)C)NC(=O)[C@@H]2CCCN2C(=O)[C@@H](Cc2ccccc2)NC1=O	16 (≈ 13.6 µM)	16 (≈ 13.6 µM)	16 (≈ 13.6 µM)	16 (≈ 13.6 µM)	> 100	16.09		
CC(C)C[C@@H]1NC(=O)[C@H](CCCNC(=N)N)NC(=O)[C@H](C(C)C)NC(=O)[C@@H]2CCCN2C(=O)[C@@H](Cc2ccccc2)NC(=O)[C@H](CC(C)C)NC(=O)[C@H](CCCN)NC(=O)[C@H](C(C)C)NC(=O)[C@@H]2CCCN2C(=O)[C@@H](CCCNC(=N)N)NC1=O	8 (≈ 6.71 µM)	8 (≈ 6.71 µM)	8 (≈ 6.71 µM)	8 (≈ 6.71 µM)	> 100	16.47		
